{"source": "patent US20100172875A1", "about": "“OIL-IN-WATER EMULSION AND ITS USE FOR THE DELAYED RELEASE OF ACTIVE ELEMENTS” (NESTEC S.A., priority 2007, published 2010)", "key": {"[1]": {"assay": "octanol/water partition coefficient (logP) of the active elements", "format": "physicochemical", "description": "The logarithm of the octanol/water partition coefficient (logP) is used extensively to describe the lipophilic or hydrophobic properties of an active element. The logP property value is taken from the ratio of the respective concentrations of the active element in the n-octanol and water partitions of a two-phase system at equilibrium. Among other methods, the classical and most reliable method of logP determination is the shake-flask method, which consists of dissolving some of the active element in question in a volume of n-octanol and water, then measuring the concentration of the solute in each solvent (Organization for Economic Cooperation and Development, Guidelines for The Testing of Chemicals, OECD 107, Partition Coefficient (n-octanol/water)-Shake Flask Method, Adopted 27 Jul. 1995-, OECD, Paris, France).\nTable 1 lists active elements used in the study, providing chemical name (first column), the Chemical Abstract Service number (CAS#, second column), supplier and supplier product code (third and fourth column), the logarithm of the octanol/water partition coefficient (logP) and the concentration used in final formulations in parts per million of volume (ppmV). These nine active elements are volatile aroma compounds."}, "[2]": {"assay": "active element release into the headspace of emulsions under in vitro dynamic conditions, monitored by PTR-MS", "format": "physicochemical", "conditions": "for significance of Tmax difference: emulsion of this invention 5 wt % (MG:MCT 1:20) vs simple reference emulsion 5 wt % MCT, Fisher LSD, α<0.05", "description": "The Tmax of a given active element released from a given emulsion is a parameter determined from the curve representing the variation over time of the given active element concentration in the water phase or in the headspace of the emulsion or of product containing the emulsion under dynamic condition (denoted as release curve) as time at which the measured concentration of the given active element reaches its maximum (FIG. 1). The analytical methods that can be applied for measurement of release curve and corresponding Tmax in dynamic condition include, but are not restricted to, measuring in headspace under a continuous purging flow of nitrogen and analyzing the active element in the purged headspace gas through its specific mass-to-charge using Proton Transfer Reaction-Mass Spectrometry (PTR-MS) (Pollien, P., Lindinger, C., Yeretzian, C., and Blank, I., “Proton Transfer Reaction Mass Spectrometry, a Tool for On-Line Monitoring of Acrylamide Formation in the Headspace of Maillard Reaction Systems and Processed Food,” Analytical Chemistry, Vol. 75, No. 20, 2003, pp. 5488-5494).\nA double-jacketted glass cell was held at 36° C. with a circulating water bath. This cell was put in the oven which was held at 60° C. in order to avoid cold points and water condensation. The headspace cell was continuously purged at 200 sccm (standard cubic centimeters per minute) with pure nitrogen. Prior to introduction into the PTR-MS, the headspace was diluted with 1960 sccm of nitrogen to avoid water saturation of the instrument.\nWhen all the set-up had been thermo-stabilized, 100 ml of sample, after being stabilized at 36° C. in a water bath, was poured inside the cell, which was quickly reconnected and put under agitation at 135 rpm. The release of active elements was monitored on-line during 10 minutes for each sample.\nNine specific masses were selected based on the scan data, i.e., m/z 45 for acetaldehyde, m/z 83 for cis-3-Hexen-1-ol, m/z 87 for diacetyl, m/z 99 for 2E-hexenal, m/z 107 for benzaldehyde, m/z 111 for octanal, m/z 131 for ethyl isovalerate, m/z 137 linalool, m/z 167 for 3-methoxy-2-isobutylpyrazine.\nThe PTR-MS signals (ion count) enabled us to calculate the active element concentration in the headspace of the emulsion so that to build the release curve for the active element. Cmax of a given active element released from a given emulsion was determined from the release curve as the maximum concentration of the active element released in the headspace of the emulsion, expressed in ppmV (parts per million in volume).\nTmax of a given active element released from a given emulsion was determined from the release curve as the time to reach maximum concentration of the active element released in the headspace of the emulsion, expressed in seconds. The nine active elements are listed in X axis and sorted along their logP, from the lowest logP value (hydrophilic compounds) to the highest logP (lipophilic compounds). Black, grey and hatched bars represent respectively Tmax the active elements released in the headspace of an oil-in-water emulsion containing with 10 wt % Medium Chain Triglycerides (MCT) (herein labelled as simple emulsion with 10 wt % MCT), of an oil-in-water emulsion containing 5 wt % MCT (herein labelled as simple reference emulsion with 5 wt % MCT), and an oil-in-water emulsion containing 5 wt % of an 1:20 mixture of a unsaturated monoglyceride (DIMODAN MO90, Danisco, Denmark) and MCT (herein Emulsion of the present invention with 5 wt % (MG:MCT 1:20)). All Tmax values were obtained on 6 replicated measurements. Tmax of 2E-Hexenal for the simple emulsion with 10 wt % MCT is not determined because its concentration in the headspace was continuously and gradually increasing over the 10 minutes of measurement. […]"}, "[3]": {"conditions": "n-octanol/water, logarithm of the octanol/water partition coefficient, read-out: logP"}}, "note": "Where two headings read alike, the source gives them in different places.", "data": [{"smiles": "COc1nccnc1CC(C)C", "note": "[3-methoxy-2-isobutylpyrazine]", "values": [{"measurement": "logP", "setting": "[1]; [3]", "result": 2.62}, {"measurement": "significance of Tmax difference", "setting": "[2]", "result": "significant increase"}]}, {"smiles": "CC=O", "note": "[Acetaldehyde]", "values": [{"measurement": "logP", "setting": "[1]; [3]", "result": -0.156}, {"measurement": "significance of Tmax difference", "setting": "[2]", "result": "non-significant difference"}]}, {"smiles": "O=Cc1ccccc1", "note": "[Benzaldehyde]", "values": [{"measurement": "significance of Tmax difference", "setting": "[2]", "result": "significant increase"}]}, {"smiles": "CC(=O)C(C)=O", "note": "[Diacetyl]", "values": [{"measurement": "logP", "setting": "[1]", "result": "−1.332"}, {"measurement": "significance of Tmax difference", "setting": "[2]", "result": "non-significant difference"}]}, {"smiles": "CCOC(=O)CC(C)C", "note": "[Ethyl isovalerate]", "values": [{"measurement": "logP", "setting": "[1]; [3]", "result": 2.12}, {"measurement": "significance of Tmax difference", "setting": "[2]", "result": "significant increase"}]}, {"smiles": "CCC/C=C/C=O", "note": "[Example 2E-hexenal, 2E-hexenal]", "values": [{"measurement": "logP", "setting": "[1]; logarithm of the octanol/water partition coefficient", "result": 1.576}]}, {"smiles": "C=CC(C)(O)CCC=C(C)C", "note": "(centres unmarked) [Linalool]", "values": [{"measurement": "logP", "setting": "[1]; [3]", "result": 3.28}, {"measurement": "Cmax released in headspace, comparison", "setting": "[2]; emulsion of the present invention 5 wt % (MG:MCT 1:20) vs simple emulsion 10 wt % MCT", "result": "significantly higher"}, {"measurement": "significance of Tmax difference", "setting": "[2]", "result": "significant increase"}]}, {"smiles": "CCCCCCCC=O", "note": "[Octanal]", "values": [{"measurement": "logP", "setting": "[1]; [3]", "result": 3.03}, {"measurement": "significance of Tmax difference", "setting": "[2]", "result": "significant increase"}]}, {"smiles": "CC/C=C\\CCO", "note": "[cis-3-Hexen-1-ol]", "values": [{"measurement": "logP", "setting": "[1]; [3]", "result": "[…]"}, {"measurement": "significance of Tmax difference", "setting": "[2]", "result": "significant increase"}]}]}
